Data set [1] in a line: Cytotoxicity against wild-type CHO cells assessed as cell growth inhibition at 10 uM after 72 hrs by MTS assay. Type of data set: cell-based, Cricetulus griseus. As to conditions: chinese hamster, read-out: GI. (In general: Tetrazolium assays rely on reduction of a dye to a coloured formazan, in cell work by metabolically active cells.)
A short description of data set [2]: Cytotoxicity against CB2-expressing CHO cells assessed as cell growth inhibition at 10 uM after 72 hrs by MTS assay. The format is cell-based, Cricetulus griseus. As to conditions: chinese hamster, read-out: GI.
Data set [3] can be described thus: Cytotoxicity against human HT-29 cells assessed as cell growth inhibition at 10 uM after 72 hrs by MTS assay. Type of data set: cell-based. As to conditions: read-out: GI.
Data set [4] is described as follows: Intrinsic clearance in CD1 mouse liver microsomes at 1 uM up to 40 mins by UPLC-MS/MS analysis. Type of data set: ADME, microsome. The conditions noted are these: read-out: CLH. (In general: Liver microsomes are vesicles of endoplasmic reticulum, rich in cytochrome P450 enzymes.)
Data set [5] is described as follows: Half life in CD1 mouse liver microsomes at 1 uM up to 40 mins by UPLC-MS/MS analysis. Type of data set: ADME, microsome.
The next data set has as its target Cannabinoid receptor 1 (Homo sapiens, UniProt P21554). Put plainly: Displacement of [3H]-CP-55940 from human CB1 expressed in CHO cells after 90 mins by TopCount scintillation counting method. The format is cell-based. (Loss of bound radioactivity is the signal in a displacement assay; it reports binding, not function.)
For data set [6], the target named is T1, Cannabinoid receptor 2 (Homo sapiens, UniProt P34972). In words: Displacement of [3H]-CP-55940 from human CB2 expressed in CHO cells after 90 mins by TopCount scintillation counting method. The format is cell-based.
T1 sequence (P34972 whole entry): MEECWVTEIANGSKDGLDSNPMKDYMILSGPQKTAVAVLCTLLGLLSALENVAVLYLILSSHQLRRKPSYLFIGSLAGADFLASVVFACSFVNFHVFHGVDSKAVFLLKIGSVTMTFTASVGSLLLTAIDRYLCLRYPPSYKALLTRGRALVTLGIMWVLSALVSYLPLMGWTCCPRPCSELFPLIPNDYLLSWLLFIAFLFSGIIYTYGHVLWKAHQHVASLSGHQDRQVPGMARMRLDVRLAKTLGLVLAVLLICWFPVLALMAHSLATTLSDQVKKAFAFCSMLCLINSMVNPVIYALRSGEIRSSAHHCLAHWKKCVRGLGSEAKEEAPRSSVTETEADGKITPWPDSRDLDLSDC
The next data set is filed under the species Homo sapiens. Put plainly: Selectivity index, ratio of Ki for human CB1 to Ki for human CB2.
A short description of data set [7]: Intrinsic clearance in CD1 mouse liver microsomes at 200 nM up to 40 mins by UPLC-MS/MS analysis. As to conditions: read-out: CLH. The format is ADME, microsome.
A short description of data set [8]: Half life in CD1 mouse liver microsomes at 200 nM up to 40 mins by UPLC-MS/MS analysis. The format is ADME, microsome.
Data set [9] deals with T1, Cannabinoid receptor 2. Put plainly: Neutral antagonist activity at human CB2 assessed as inhibition of WIN552122-induced suppression of cAMP formation preincubated for 15 mins followed by forskolin addition for 30 mins measured after 1 hr by HTRF assay. Type of data set: functional.
Data set [10] deals with T1, Cannabinoid receptor 2. In words: Neutral antagonist activity at human CB2 assessed as restoration of forskolin-induced cAMP formation preincubated for 15 mins followed by forskolin addition for 30 mins measured after 1 hr by HTRF assay. The format is functional.

Some results are limits rather than exact numbers.

Cannabinoid receptor 1, sequence (P21554 whole entry): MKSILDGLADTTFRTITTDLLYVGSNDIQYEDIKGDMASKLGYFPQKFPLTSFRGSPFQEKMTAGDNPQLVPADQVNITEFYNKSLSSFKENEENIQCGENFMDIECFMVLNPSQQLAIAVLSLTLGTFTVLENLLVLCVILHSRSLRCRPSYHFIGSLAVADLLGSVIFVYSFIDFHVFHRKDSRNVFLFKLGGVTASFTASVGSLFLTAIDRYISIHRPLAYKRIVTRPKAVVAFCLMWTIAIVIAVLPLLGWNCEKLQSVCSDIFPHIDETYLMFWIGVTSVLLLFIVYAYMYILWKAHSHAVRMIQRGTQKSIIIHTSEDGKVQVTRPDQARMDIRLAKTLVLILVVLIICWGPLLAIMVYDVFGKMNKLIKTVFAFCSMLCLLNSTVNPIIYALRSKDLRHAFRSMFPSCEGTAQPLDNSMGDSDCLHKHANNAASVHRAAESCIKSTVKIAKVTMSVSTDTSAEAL

As a reminder, the half-life is the time needed for the level to fall by half in the phase considered. Consider `CCN1CCN(c2nc(C)nc3[nH]c(-c4ccccc4Cl)nc23)CC1`, for which the inhibition at 72 h, 10 µM was 30% in data set [1], 0% in data set [2] and 0% in data set [3]. The microsomal CLint at 1 µM in data set [4] came out at 54 µL/min/mg. Besides, the half-life at 1 µM in data set [5] came to 44 min.

What is called Ki is the equilibrium dissociation constant of an inhibitor or competing ligand from its target. A lower Ki goes with a stronger hold on the target. For the molecule `CN1CCN(c2ncnc3oc(-c4ccccc4)nc23)CC1`, the Ki on Cannabinoid receptor 1 and at Cannabinoid receptor 2 [6] was greater than 1 µM each time. For the same molecule, the inhibition at 72 h, 10 µM in data set [1], in data set [2] and in data set [3] was 0% throughout.

For `Clc1ccccc1-c1nc2c(N3CCOCC3)ncnc2o1`, the Ki at Cannabinoid receptor 1 and on Cannabinoid receptor 2 [6] was greater than 1 µM throughout. Besides, the inhibition at 72 h, 10 µM in data set [1] came to 0%; in data set [2], 10%; in [3] it was 5%.

As for `CN1CCN(c2ncnc3oc(-c4ccccc4C(F)(F)F)nc23)CC1`, the Ki on Cannabinoid receptor 1 is greater than 1 µM; at Cannabinoid receptor 2 [6] it was 0.155 µM. Further, in the data set filed under Homo sapiens, the Ratio Ki was greater than 6.4. Further, the inhibition at 72 h, 10 µM in [1] worked out at 3%; in data set [2], 0%; in data set [3] it was 0%. The microsomal CLint at 1 µM in data set [4] was determined as 1260 µL/min/mg. This molecule also displayed a half-life at 1 µM in data set [5] of 0.9 min.

Consider `CN1CCN(c2ncnc3oc(-c4ccccc4F)nc23)CC1`, for which the Ki on Cannabinoid receptor 1 and at Cannabinoid receptor 2 [6] was greater than 1 µM throughout. The values for the inhibition at 72 h, 10 µM in data set [1], in data set [2] and in [3] were 8%, 7% and 0%, respectively.

Regarding `Clc1ccccc1-c1nc2c(NCC3CCCCC3)ncnc2o1`, the Ki at Cannabinoid receptor 1 and on Cannabinoid receptor 2 [6] was greater than 1 µM in each case. Moreover, the values for the inhibition at 72 h, 10 µM in data set [1], in [2] and in [3] were 0%, 10% and 0%, respectively.

In the case of `CN1CCN(c2ncnc3oc(-c4ccccc4Cl)nc23)CC1`, the inhibition constant (Ki) was greater than 1 µM on Cannabinoid receptor 1 and 0.35 µM on Cannabinoid receptor 2 [6]. Besides, the Ratio Ki in the data set listed under Homo sapiens was greater than 2.8. For the same molecule, the values for the inhibition at 72 h, 10 µM in data set [1], in data set [2] and in [3] were 0%, 0% and 8%, respectively. In addition, the microsomal CLint at 0.2 µM in data set [7] turned out to be 1180 µL/min/mg. The molecule also registered a half-life at 0.2 µM in data set [8] of 1.3 min.

As for `COc1ccc(C(=O)c2c(C)n(CCN3CCOCC3)c3cc(I)ccc23)cc1`, at Cannabinoid receptor 2 [6], the Ki came out at 0.091 µM. In addition, the inhibition at 72 h, 10 µM in data set [1], in data set [2] and in data set [3] was 0% in each case.

For the molecule `CCN1CCN(c2ncnc3oc(-c4ccccc4F)nc23)CC1`, the Ki at Cannabinoid receptor 1 and on Cannabinoid receptor 2 [6] was greater than 1 µM throughout. For the same molecule, the inhibition at 72 h, 10 µM in data set [1] amounted to 10%; in data set [2], 8%; in data set [3] it was 24%.

By IC50 is commonly meant the concentration at which inhibition is half-maximal. Turning to `Cc1nc(N2CCN(C)CC2)c2nc(-c3ccccc3Cl)oc2n1`, the Ki was greater than 1 µM on Cannabinoid receptor 1 and 0.0275 µM on Cannabinoid receptor 2 [6]. Moreover, the Ratio Ki in the data set listed under Homo sapiens is greater than 36.3. Also, the inhibition at 72 h, 10 µM in data set [1] is 0%; in data set [2] it was 4%; in data set [3], 24%. Also, the microsomal CLint at 1 µM in [4] is 502 µL/min/mg. For the same molecule, the half-life at 1 µM in [5] turned out to be 4.1 min. In addition, the IC50 at Cannabinoid receptor 2 [9] and on Cannabinoid receptor 2 [10] was 0.93 µM each time.

With `CCN1CCN(c2nc(C)nc3oc(-c4ccccc4Cl)nc23)CC1`, the Ki is 0.293 µM on Cannabinoid receptor 1 and 0.023 µM at Cannabinoid receptor 2 [6]. In addition, the Ratio Ki in the data set filed under Homo sapiens came out at 12.7. Further, the inhibition at 72 h, 10 µM in data set [1] was found to be 0%; in data set [2] it was 16%; in data set [3], 16%. In data set [4], the microsomal CLint at 1 µM amounted to 263 µL/min/mg. Also, the half-life at 1 µM in [5] is 8.1 min. The IC50 on Cannabinoid receptor 2 [9] and at Cannabinoid receptor 2 [10] was 0.12 µM each time.

For `CCCCNc1ncnc2oc(-c3ccccc3Cl)nc12`, the Ki at Cannabinoid receptor 1 and at Cannabinoid receptor 2 [6] was greater than 1 µM throughout. Further, the inhibition at 72 h, 10 µM in [1] turned out to be 0%; in data set [2] it was 18%; in data set [3], 0%.

On to `CCN1CCN(c2ncnc3oc(-c4ccccc4Cl)nc23)CC1`, for which the Ki was greater than 1 µM on Cannabinoid receptor 1 and 0.329 µM at Cannabinoid receptor 2 [6]. Besides, in the data set filed under Homo sapiens, the Ratio Ki was greater than 3. Moreover, the inhibition at 72 h, 10 µM in data set [1] was determined as 1%; in data set [2], 9%; in data set [3], 4%. The microsomal CLint at 1 µM in data set [4] worked out at 1100 µL/min/mg. The molecule further gave a half-life at 1 µM in [5] of 1.2 min.

`COCCNc1ncnc2oc(-c3ccccc3Cl)nc12`: the Ki at Cannabinoid receptor 1 and on Cannabinoid receptor 2 [6] was greater than 1 µM throughout. Also, the inhibition at 72 h, 10 µM in [1], in data set [2] and in [3] was 0% each time.

As to `CC(=O)N1CCN(c2ncnc3oc(-c4ccccc4Cl)nc23)CC1`, the Ki is greater than 1 µM at Cannabinoid receptor 1 and 0.678 µM on Cannabinoid receptor 2 [6]. Further, the Ratio Ki in the data set listed under Homo sapiens was greater than 1.4. The inhibition at 72 h, 10 µM in data set [1] is 23%; in [2], 11%; in data set [3] it was 0%. Moreover, the microsomal CLint at 0.2 µM in data set [7] came out at 194 µL/min/mg. The half-life at 0.2 µM in data set [8] was 12.2 min.

Consider `CC(=O)N1CCN(c2ncnc3oc(-c4ccccc4C(F)(F)F)nc23)CC1`, for which the Ki is greater than 1 µM on Cannabinoid receptor 1 and 0.254 µM at Cannabinoid receptor 2 [6]. In addition, in the data set filed under Homo sapiens, the Ratio Ki was greater than 3.9. In addition, the inhibition at 72 h, 10 µM in data set [1] was determined as 12%; in data set [2], 1%; in [3], 12%. Besides, the microsomal CLint at 1 µM in data set [4] is 174 µL/min/mg. In data set [5], this molecule displayed a half-life at 1 µM of 12.5 min.

Consider `CCN1CCN(c2ncnc3oc(-c4ccccc4)nc23)CC1`, for which the Ki on Cannabinoid receptor 1 and at Cannabinoid receptor 2 [6] was greater than 1 µM each time. Further, the inhibition at 72 h, 10 µM in data set [1], in [2] and in data set [3] was 0% throughout.

Regarding `CCN1CCN(c2ncnc3oc(-c4ccccc4C(F)(F)F)nc23)CC1`, the Ki at Cannabinoid receptor 1 was greater than 1 µM; at Cannabinoid receptor 2 [6], 0.0955 µM. Besides, in the data set filed under Homo sapiens, the Ratio Ki was greater than 10.4. Further, the figures for the inhibition at 72 h, 10 µM in data set [1], in data set [2] and in data set [3] were 10%, 5% and 1%, respectively. Moreover, the microsomal CLint at 1 µM in [4] came to 1240 µL/min/mg. In [5], this molecule displayed a half-life at 1 µM of 1 min.

On to `CCCN1CCN(c2ncnc3oc(-c4ccccc4Cl)nc23)CC1`, for which the Ki at Cannabinoid receptor 1 and at Cannabinoid receptor 2 [6] was greater than 1 µM in each case. The results for the inhibition at 72 h, 10 µM in data set [1], in data set [2] and in [3] were 0%, 2% and 0%, respectively.

Consider `CCCCCNc1ncnc2oc(-c3ccccc3Cl)nc12`, for which the inhibition constant Ki on Cannabinoid receptor 1 and at Cannabinoid receptor 2 [6] was greater than 1 µM each time. The inhibition at 72 h, 10 µM in data set [1] was found to be 6%; in data set [2], 13%; in data set [3], 10%.

In the case of `Clc1ccccc1-c1nc2c(NCC3CCNCC3)ncnc2o1`, the Ki at Cannabinoid receptor 1 and on Cannabinoid receptor 2 [6] was greater than 1 µM throughout. Moreover, the inhibition at 72 h, 10 µM in data set [1] was 0%; in data set [2], 9%; in data set [3], 41%.

Values taken from ChEMBL document CHEMBL4145495, “Development of novel oxazolo[5,4-d]pyrimidines as competitive CB2 neutral antagonists based on scaffold hopping” (Eur J Med Chem, 2018).
